Measured values reported in ChEMBL document CHEMBL5131429, “Synthesis and antifungal evaluation of phenol-derived bis(indolyl)methanes combined with FLC against Candida albicans” (Bioorg Med Chem Lett, 2022).
In brackets after ≈: the same amount, converted by molar mass. Activity calls are given as the source filed them. The calls are words filed in the database; no cut-off is given here.

What was measured:
Candida albicans [1] = assay: Antifungal activity against Candida albicans SC5314 by microdilution method; format: functional
Candida albicans [2] = assay: Antifungal activity against Candida albicans CA23 by microdilution method; format: functional
Candida albicans [3] = assay: Antifungal activity against Candida albicans ATCC14053 by microdilution method; format: functional
Candida albicans [4] = assay: Antifungal activity against Candida albicans CA187 by microdilution method; format: functional
Candida albicans [5] = assay: Antifungal activity against Candida albicans CA800 by microdilution method; format: functional
Candida albicans [6] = assay: Antifungal activity against Candida albicans CA3816 by microdilution method; format: functional
Candida albicans [7] = assay: Antifungal activity against Candida albicans CA3511 by microdilution method; format: functional
Candida albicans [8] = assay: Antifungal activity against Candida albicans CA5408 by microdilution method; format: functional
Candida albicans [9] = assay: Antifungal activity against Candida albicans CA558 by microdilution method; format: functional
Candida albicans [10] = assay: Antifungal activity against Candida albicans CA602 by microdilution method; format: functional
Candida albicans [11] = assay: Induction of mitochondrial membrane potential loss in Candida albicans at 1 ug/ml after 16 hrs by JC-1 staining based fluorescence microplate reader; format: functional, organism-based; conditions: dose 1.0 µg/ml
[12] = Cytotoxicity against PBMC (unknown origin) by MTT assay; format: toxicity, cell-based
[13] = Cytotoxicity against human 16HBE by MTS assay; format: toxicity, cell-based; conditions: 16HBE14o- cells
Candida albicans [14] = assay: Antifungal activity against Candida albicans SC5314 in presence of fluconazole by microdilution method; format: functional
Candida albicans [15] = assay: Antifungal activity against Candida albicans CA23 in presence of fluconazole by microdilution method; format: functional
Candida albicans [16] = assay: Antifungal activity against Candida albicans SC5314 assessed as fractional inhibitory concentration index in presence of fluconazole by microdilution method; format: functional
Candida albicans [17] = assay: Antifungal activity against Candida albicans CA23 assessed as fractional inhibitory concentration index in presence of fluconazole by microdilution method; format: functional
Candida albicans [18] = assay: Antifungal activity against Candida albicans ATCC14053 in presence of fluconazole by microdilution method; format: functional
Candida albicans [19] = assay: Antifungal activity against Candida albicans CA187 in presence of fluconazole by microdilution method; format: functional
Candida albicans [20] = assay: Antifungal activity against Candida albicans CA800 in presence of fluconazole by microdilution method; format: functional
Candida albicans [21] = assay: Antifungal activity against Candida albicans CA3816 in presence of fluconazole by microdilution method; format: functional
Candida albicans [22] = assay: Antifungal activity against Candida albicans CA3511 in presence of fluconazole by microdilution method; format: functional
Candida albicans [23] = assay: Antifungal activity against Candida albicans CA5408 in presence of fluconazole by microdilution method; format: functional
Candida albicans [24] = assay: Antifungal activity against Candida albicans CA558 in presence of fluconazole by microdilution method; format: functional
Candida albicans [25] = assay: Antifungal activity against Candida albicans CA602 in presence of fluconazole by microdilution method; format: functional
Candida albicans [26] = assay: Antifungal activity against Candida albicans ATCC14053 assessed as fractional inhibitory concentration index in presence of fluconazole by microdilution method; format: functional
Candida albicans [27] = assay: Antifungal activity against Candida albicans CA187 assessed as fractional inhibitory concentration index in presence of fluconazole by microdilution method; format: functional
Candida albicans [28] = assay: Antifungal activity against Candida albicans CA800 assessed as fractional inhibitory concentration index in presence of fluconazole by microdilution method; format: functional
Candida albicans [29] = assay: Antifungal activity against Candida albicans CA3816 assessed as fractional inhibitory concentration index in presence of fluconazole by microdilution method; format: functional
Candida albicans [30] = assay: Antifungal activity against Candida albicans CA3511 assessed as fractional inhibitory concentration index in presence of fluconazole by microdilution method; format: functional
Candida albicans [31] = assay: Antifungal activity against Candida albicans CA5408 assessed as fractional inhibitory concentration index in presence of fluconazole by microdilution method; format: functional
Candida albicans [32] = assay: Antifungal activity against Candida albicans CA558 assessed as fractional inhibitory concentration index in presence of fluconazole by microdilution method; format: functional
Candida albicans [33] = assay: Antifungal activity against Candida albicans CA602 assessed as fractional inhibitory concentration index in presence of fluconazole by microdilution method; format: functional
Candida albicans [34] = assay: Antifungal activity against Candida albicans at 2 ug/mL in presence of 1 ug/mL fluconazole by Time-kill curve assay; format: functional, organism-based; conditions: dose 2.0 µg/ml
Candida albicans [35] = assay: Antifungal activity against Candida albicans ATCC14053 assessed as decrease in number of hyphae at 2 ug/mL in presence of 1 ug/mL fluconazole by microscopic analysis; format: functional, organism-based; conditions: dose 2.0 µg/ml
Candida albicans [36] = assay: Antifungal activity against Candida albicans ATCC14053 assessed as shortened length of hyphae at 2 ug/mL in presence of 1 ug/mL fluconazole by microscopic analysis; format: functional, organism-based; conditions: dose 2.0 µg/ml
Candida albicans [37] = assay: Induction of ROS production in Candida albicans at 2 ug/ml in presence of 1 ug/mL fluconazole by DCFH-DA assay; format: functional; conditions: dose 2.0 µg/ml
Candida albicans [38] = assay: Induction of mitochondrial membrane potential loss in Candida albicans at 2 ug/ml after 16 hrs in presence of 1 ug/mL fluconazole by JC-1 staining based fluorescence microplate reader; format: functional, organism-based; conditions: dose 2.0 µg/ml
Candida albicans [39] = assay: Induction of mitochondrial membrane potential loss in Candida albicans at 2 ug/ml after 16 hrs by JC-1 staining based fluorescence microplate reader; format: functional, organism-based; conditions: dose 2.0 µg/ml
Candida albicans [40] = assay: Effect on cell membrane permeability ib Candida albicans assessed as cell membrane damage at 2 ug/ml measured after 8 to 24 hrs in presence of 1 ug/mL fluconazole by PI staining based fluorescence analysis; format: functional; conditions: dose 2.0 µg/ml, time 8-24 hrs

Work on `OC(Cn1cncn1)(Cn1cncn1)c1ccc(F)cc1F` [FLUCONAZOLE] yielded an MIC80 (Candida albicans [1]) of 5.79 µg/mL (≈ 18.9 µM), an MIC80 (Candida albicans [2]) of over 200 µg/mL and an MIC80 (Candida albicans [3]) of over 200 µg/mL. For the same compound, the MIC80 (Candida albicans [4]) was over 200 µg/mL, the MIC80 (Candida albicans [5]) was over 200 µg/mL and the MIC80 (Candida albicans [6]) was over 200 µg/mL. It also gave an MIC80 (Candida albicans [7]) of over 200 µg/mL, an MIC80 (Candida albicans [8]) of over 200 µg/mL and an MIC80 (Candida albicans [9]) of over 200 µg/mL. For the same compound, the MIC80 (Candida albicans [10]) was over 200 µg/mL, the Activity (Candida albicans [11]) was “Active” and the CC50 [12] was 676 µg/mL (≈ 2210 µM). It also gave a CC50 [13] of over 1000 µg/mL.

Compound `Oc1c(Br)cc(Br)cc1C(c1c[nH]c2ccccc12)c1c[nH]c2ccccc12` has an MIC80 (Candida albicans [1]) of over 200 µg/mL, an MIC80 (Candida albicans [2]) of over 200 µg/mL and an MIC80 (Candida albicans [14]) of 2.85 µg/mL. For the same compound, the MIC80 (Candida albicans [15]) was 6.01 µg/mL, the “fractional inhibitory concentration index (FICI)” value (Candida albicans [16]) was 0.11 and the “fractional inhibitory concentration index (FICI)” value (Candida albicans [17]) was 0.02.

Work on `Oc1ccc(Cl)cc1C(c1c[nH]c2ccccc12)c1c[nH]c2ccccc12` yielded an MIC80 (Candida albicans [1]) of over 200 µg/mL, an MIC80 (Candida albicans [2]) of over 200 µg/mL and an MIC80 (Candida albicans [14]) of 3.27 µg/mL. The MIC80 (Candida albicans [15]) was 31.8 µg/mL, the “fractional inhibitory concentration index (FICI)” value (Candida albicans [16]) was 0.12 and the “fractional inhibitory concentration index (FICI)” value (Candida albicans [17]) was 0.1.

In the case of `Oc1c(Cl)cccc1C(c1c[nH]c2ccccc12)c1c[nH]c2ccccc12`, the MIC80 (Candida albicans [1]) is reported as over 200 µg/mL, the MIC80 (Candida albicans [2]) is reported as over 200 µg/mL and the MIC80 (Candida albicans [14]) is reported as 1.31 µg/mL. The MIC80 (Candida albicans [15]) was 5.82 µg/mL, the “fractional inhibitory concentration index (FICI)” value (Candida albicans [16]) was 0.05 and the “fractional inhibitory concentration index (FICI)” value (Candida albicans [17]) was 0.02.

`Oc1ccc(Br)cc1C(c1c[nH]c2ccccc12)c1c[nH]c2ccccc12` gave an MIC80 (Candida albicans [1]) of over 200 µg/mL, an MIC80 (Candida albicans [2]) of over 200 µg/mL and an MIC80 (Candida albicans [14]) of 3.58 µg/mL. The MIC80 (Candida albicans [15]) was 5.81 µg/mL, the “fractional inhibitory concentration index (FICI)” value (Candida albicans [16]) was 0.13 and the “fractional inhibitory concentration index (FICI)” value (Candida albicans [17]) was 0.02.

With `Oc1ccccc1C(c1c[nH]c2ccccc12)c1c[nH]c2ccccc12` the MIC80 (Candida albicans [1]) was over 200 µg/mL, the MIC80 (Candida albicans [2]) was over 200 µg/mL and the MIC80 (Candida albicans [14]) was 3.22 µg/mL. For the same compound, the MIC80 (Candida albicans [15]) was 6.07 µg/mL, the “fractional inhibitory concentration index (FICI)” value (Candida albicans [16]) was 0.12 and the “fractional inhibitory concentration index (FICI)” value (Candida albicans [17]) was 0.03.

Work on `Cc1ccc(O)c(C(c2c[nH]c3ccccc23)c2c[nH]c3ccccc23)c1` yielded an MIC80 (Candida albicans [1]) of 23.2 µg/mL (≈ 65.9 µM), an MIC80 (Candida albicans [2]) of over 200 µg/mL and an MIC80 (Candida albicans [14]) of 4.28 µg/mL. For the same compound, the MIC80 (Candida albicans [15]) was 5.83 µg/mL, the “fractional inhibitory concentration index (FICI)” value (Candida albicans [16]) was 0.33 and the “fractional inhibitory concentration index (FICI)” value (Candida albicans [17]) was 0.02.

In the case of `Oc1c(Br)cccc1C(c1c[nH]c2ccccc12)c1c[nH]c2ccccc12`, the MIC80 (Candida albicans [1]) is reported as over 200 µg/mL, the MIC80 (Candida albicans [2]) is reported as over 200 µg/mL and the MIC80 (Candida albicans [14]) is reported as 1.22 µg/mL. The MIC80 (Candida albicans [15]) was 5.82 µg/mL, the “fractional inhibitory concentration index (FICI)” value (Candida albicans [16]) was 0.04 and the “fractional inhibitory concentration index (FICI)” value (Candida albicans [17]) was 0.02. For the same compound, the MIC80 (Candida albicans [3]) was over 200 µg/mL, the MIC80 (Candida albicans [4]) was over 200 µg/mL and the MIC80 (Candida albicans [5]) was over 200 µg/mL. It also gave an MIC80 (Candida albicans [6]) of over 200 µg/mL, an MIC80 (Candida albicans [7]) of over 200 µg/mL and an MIC80 (Candida albicans [8]) of over 200 µg/mL. It also gave an MIC80 (Candida albicans [9]) of over 200 µg/mL, an MIC80 (Candida albicans [10]) of over 200 µg/mL and an MIC80 (Candida albicans [18]) of 1.37 µg/mL. For the same compound, the MIC80 (Candida albicans [19]) was 4.5 µg/mL, the MIC80 (Candida albicans [20]) was 2.63 µg/mL and the MIC80 (Candida albicans [21]) was 1.38 µg/mL. It also gave an MIC80 (Candida albicans [22]) of 5.96 µg/mL, an MIC80 (Candida albicans [23]) of 1.33 µg/mL and an MIC80 (Candida albicans [24]) of 5.61 µg/mL. For the same compound, the MIC80 (Candida albicans [25]) was 5.69 µg/mL, the “fractional inhibitory concentration index (FICI)” value (Candida albicans [26]) was 0.01 and the “fractional inhibitory concentration index (FICI)” value (Candida albicans [27]) was 0.02. For the same compound, the “fractional inhibitory concentration index (FICI)” value (Candida albicans [28]) was 0.01, the “fractional inhibitory concentration index (FICI)” value (Candida albicans [29]) was 0.01 and the “fractional inhibitory concentration index (FICI)” value (Candida albicans [30]) was 0.03. For the same compound, the “fractional inhibitory concentration index (FICI)” value (Candida albicans [31]) was 0.01, the “fractional inhibitory concentration index (FICI)” value (Candida albicans [32]) was 0.03 and the “fractional inhibitory concentration index (FICI)” value (Candida albicans [33]) was 0.03. The Activity (Candida albicans [34]) was “Active”, the Activity (Candida albicans [35]) was “Active” and the Activity (Candida albicans [36]) was “Active”. For the same compound, the Activity (Candida albicans [37]) was “Active”, the Activity (Candida albicans [38]) was “Active” and the Activity (Candida albicans [39]) was “Active”. For the same compound, the Activity (Candida albicans [40]) was “Active”, the CC50 [12] was 32.7 µg/mL (≈ 78.5 µM) and the CC50 [13] was 35.6 µg/mL (≈ 85.3 µM).

`Oc1ccc(F)cc1C(c1c[nH]c2ccccc12)c1c[nH]c2ccccc12` showed an MIC80 (Candida albicans [1]) of over 200 µg/mL, an MIC80 (Candida albicans [2]) of over 200 µg/mL and an MIC80 (Candida albicans [14]) of 0.98 µg/mL. For the same compound, the MIC80 (Candida albicans [15]) was 5.92 µg/mL, the “fractional inhibitory concentration index (FICI)” value (Candida albicans [16]) was 0.04 and the “fractional inhibitory concentration index (FICI)” value (Candida albicans [17]) was 0.02.
